Results from the supplement of paper PMC6045584.
± gives the standard deviation of the averaged measurements.

Columns and labels:
LAPATINIB = compound: CS(=O)(=O)CCNCc1ccc(-c2ccc3ncnc(Nc4ccc(OCc5cccc(F)c5)c(Cl)c4)c3c2)o1 [LAPATINIB]; assay: surviving fraction relative to DMSO-only wells; higher = less growth inhibition; conditions: exposure time: 5 days
In short: (§1)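 Log-phase tumour cell lines, 250–500 cells per well in 384-well plates, received inhibitors at 0.5, 1, 5, 10, 50, 100, 500 and 1000 nM continuously for five days, starting 24 hours after seeding. Viability was quantified with CellTiter-Glo luminescence and normalised to the median of DMSO-only wells to give surviving fraction. Three screens were run per line, and a line stayed in only with replicate Pearson r >0.7 and median Z' >0.3.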

ABT-737 = compound: CN(C)CC[C@H](CSc1ccccc1)Nc1ccc(S(=O)(=O)NC(=O)c2ccc(N3CCN(Cc4ccccc4-c4ccc(Cl)cc4)CC3)cc2)cc1[N+](=O)[O-] [ABT-737]; assay: as above; conditions: exposure time: 5 days
In short: as §1

Test System	surviving fraction (LAPATINIB; 0.5 nM)	surviving fraction (LAPATINIB; 1 nM)	surviving fraction (LAPATINIB; 5 nM)	surviving fraction (LAPATINIB; 10 nM)	surviving fraction (LAPATINIB; 50 nM)	surviving fraction (LAPATINIB; 100 nM)	surviving fraction (LAPATINIB; 500 nM)	surviving fraction (LAPATINIB; 1000 nM)	surviving fraction (ABT-737; 0.5 nM)	surviving fraction (ABT-737; 1 nM)	surviving fraction (ABT-737; 5 nM)	surviving fraction (ABT-737; 10 nM)	surviving fraction (ABT-737; 50 nM)	surviving fraction (ABT-737; 100 nM)	surviving fraction (ABT-737; 500 nM)	surviving fraction (ABT-737; 1000 nM)
SCC90 HEADNECK	1.02 ± 0.038	1.01 ± 0.1	1.01 ± 0.087	0.971 ± 0.04	0.845 ± 0.037	0.802 ± 0.067	0.532 ± 0.015	0.508 ± 0.023	1.05 ± 0.077	1.05 ± 0.11	1.14 ± 0.12	1.14 ± 0.073	1.09 ± 0.046	1.11 ± 0.097	0.949 ± 0.05	0.853 ± 0.087
93VU HEADNECK	1.04 ± 0.13	1.09 ± 0.11	1.07 ± 0.018	1.12 ± 0.069	0.806 ± 0.021	0.827 ± 0.045	0.493 ± 0.039	0.438 ± 0.041	1.146 ± 0.0083	1.09 ± 0.057	1.21 ± 0.19	1.16 ± 0.031	1.23 ± 0.069	1.17 ± 0.09	1.12 ± 0.09	1.04 ± 0.074
MDAMB436 BREAST	0.893 ± 0.14	0.996 ± 0.13	0.834 ± 0.091	0.896 ± 0.03	1.02 ± 0.072	1.03 ± 0.12	1.05 ± 0.23	1.04 ± 0.083	0.985 ± 0.085	1.09 ± 0.041	1.05 ± 0.14	0.972 ± 0.16	0.998 ± 0.1	1.14 ± 0.31	0.961 ± 0.17	0.962 ± 0.083
LNCAP PROSTATE	0.894 ± 0.055	0.981 ± 0.02	0.917 ± 0.086	0.981 ± 0.033	0.937 ± 0.061	0.891 ± 0.038	0.995 ± 0.035	0.951 ± 0.21	0.971 ± 0.034	0.971 ± 0.041	0.932 ± 0.065	0.882 ± 0.025	0.973 ± 0.035	0.932 ± 0.04	0.914 ± 0.05	0.856 ± 0.1
MHM BONE	0.9907 ± 0.0093	1 ± 0.015	1.05 ± 0.014	1.07 ± 0.037	1.02 ± 0.027	1.02 ± 0.014	0.992 ± 0.033	1.01 ± 0.024	1.03 ± 0.053	1.08 ± 0.062	1.07 ± 0.045	1.1 ± 0.046	1.07 ± 0.034	1.15 ± 0.013	1.09 ± 0.015	1.12 ± 0.015
CME SYNOVIAL	1.13 ± 0.2	1.4 ± 0.13	1.43 ± 0.1	1.28 ± 0.12	1.26 ± 0.096	1.35 ± 0.19	1.2 ± 0.059	1.14 ± 0.16	1.33 ± 0.17	1.37 ± 0.049	1.42 ± 0.099	1.37 ± 0.11	1.27 ± 0.23	1.42 ± 0.14	1.21 ± 0.099	1.23 ± 0.07
OSHN BONE	1.03 ± 0.026	1.098 ± 0.0061	1.09 ± 0.025	1.1 ± 0.011	1.05 ± 0.02	1.08 ± 0.015	1.067 ± 0.0071	1.1 ± 0.015	1.09 ± 0.026	1.1 ± 0.018	1.08 ± 0.014	1.09 ± 0.014	1.11 ± 0.028	1.11 ± 0.022	1.02 ± 0.049	0.998 ± 0.035
MCF7 BREAST	0.988 ± 0.053	0.921 ± 0.032	0.931 ± 0.049	0.962 ± 0.043	0.961 ± 0.057	0.946 ± 0.096	0.946 ± 0.061	0.916 ± 0.023	0.9422 ± 0.0083	0.957 ± 0.048	0.993 ± 0.02	1 ± 0.039	1.02 ± 0.052	1.02 ± 0.044	0.985 ± 0.02	1 ± 0.022
CAL51 BREAST	0.966 ± 0.078	1.08 ± 0.024	1.03 ± 0.055	1.02 ± 0.04	0.994 ± 0.042	1.08 ± 0.032	1.02 ± 0.089	0.989 ± 0.03	1.03 ± 0.062	0.941 ± 0.066	1.07 ± 0.031	1.04 ± 0.02	1.04 ± 0.021	1.08 ± 0.086	1.09 ± 0.017	0.959 ± 0.048
SUM149.B1*.S BREAST	1.08 ± 0.049	1.23 ± 0.033	1.12 ± 0.023	1.11 ± 0.026	0.995 ± 0.06	1.07 ± 0.057	1.09 ± 0.035	1.05 ± 0.038	1.13 ± 0.027	1.1 ± 0.072	1.16 ± 0.021	1.12 ± 0.034	1.12 ± 0.057	1.11 ± 0.069	1.1 ± 0.024	1.16 ± 0.055
